Measured values published in article PMC1968196, “Effect of anthracycline analogs on photolabelling of p-glycoprotein by [125I]iodomycin and [3H]azidopine: relation to lipophilicity and inhibition of daunorubicin transport in multidrug resistant cells” (British Journal of Cancer, 1993).
Where “and” joins values, the source holds several entries; their conditions need not be identical. Identical values can stand only once. Like-named read-outs stand apart in the source and are kept apart here.

Assays:
[1] = pH 7.45
Source text: (§1) Br. J. Cancer (1993), 67, 226 231 ? Macmillan Press Ltd., 1993 Effect of anthracycline analogs on photolabelling of p-glycoprotein by I'25 liodomycin and [3Hlazidopine: Relation to lipophilicity and inhibition of daunorubicin transport in multidrug resistant cells E. Frichel*, E.J.F. Demant2, M. Sehested3 & N.I. Nissen' 'Department of Medicine and Hematology, L 4042, Rigshospitalet-University Hospital, 9, Blegdamsvej, DK-2100 Copenhagen; 2Department of Biochemistry C, The Panum Institute, University of Copenhagen, DK-2200 Copenhagen; 3Department of Pathology, Sundby Hospital, DK-2300 Copenhagen, Denmark. […] We photoaffinity labelled P-glycoprotein in daunorubicin (DNR) resistant Ehrlich ascites tumour cells (EHR2/DNR + ) with a ['25I]iodinated Bolton-Hunter derivative of daunorubicin ([1251]iodomycin) and with [3H]azidopine. […] Anthracyclines are among the most valuable cytostatic agents in clinical use. Their usefulness is, however, limited by the occurrence of tumour cells with the multidrug resistance (MDR) phenotype (Beck, 1987; Bliek & Borst, 1989; Endicott & Ling, 1989; Kaye & Merry, 1985; Moscow & Cowan, 1988). MDR cells have an enhanced amount of a 150- 170 kDa plasma membrane glycoprotein, P-glycoprotein (Pgp) (Kartner et al., 1983 and 1985; Cornwell et al., 1986; Bradley et al., 1988; Beck, 1991a; Roninson, 1991), that may function as a low-specificity transport protein to facilitate the outward transport of cytotoxic agents including the anthracyclines. Thus, increased drug efflux and therefore decreased accumulation is seen in MDR cells not only to the drug for which resistance is developed but also to a wide spectrum of chemically unrelated cytostatics (Bradley et al., 1988; Fojo et al., 1985). […] The aim of this study was to examine these analogs for their ability to com- pete for ligand binding to Pgp and thus service as inhibitors for the outward drug transport system in MDR cells. Anthracycline inter-actions with Pgp were assessed using the specific photolabelling of the protein with [251I]iodomycin, a ['251]iodinated Bolton-Hunter derivative of DNR (Busche et al., 1989a) and with [3H]azidopine ([3H]AZP) which photolabels Pgp in plasma membrane vesicles from EHR2/ DNR + cells (Sehested et al., 1990) as well as in whole cells (Safa et al., 1987; Friche et al., 1990c). […] Material and methods Chemicals Duanorubicin (DNR); AdriamycinR (Doxorubicin/HCl, DOX); 4'-deoxy-4'-iododoxorubicin (DIDOX); and 4- demethoxy-DNR were kindly supplied from Farmitalia, Carlo Erba (Milan, Italy). N,N-dibenzyl-DNR was a gift from Dr Nicholas Bachur, (Baltimore, MD) and N- benzyladriamycin-14-valerate (AD 198) a gift from Professor M. Israel (Memphis, TN). Mitoxantrone was purchased from Lederle (New Jersey, USA), Aclacinomycin A from Lund- beck & Co A/S (Copenhagen, Denmark), OncovinR (Vincristine/HCl, VCR) from Eli Lilly Deutschland GMBH (Giessen, Germany), Cremophor EL from BASF Aktiengesellschaft (Ludwigshafen, Germany), and Tween 80 from the Sigma Chemical Co. (St. Louis, MO). ['251]-Bolton- Hunter reagent (2000 Ci mmol 1), [3H]AZP (42 Ci mmol- ') and non-radioactive AZP were purchased from Amersham International (Amersham, UK). All other chemicals were of analytical grade. Organic solvents were distilled prior to use. Triethylamine was distilled over ninhydrin and anhydrous methanol was stored over molecular sieve (3 A). Tumour cells Cells were either the wild-type Ehrlich ascites tumor line (EHR2) or the corresponding DNR-resistant line (EHR2/ DNR + ) (Dan0, 1971) displaying both the MDR phenotype (Sehested et al., 1990) and as recently shown, decreased Correspondence: E. Friche. Received 22 April 1992; and in revised form 21 September 1992.

P-glycoprotein [2] = assay: [3H]azidopine photolabelling of Pgp in EHR2/DNR+ cells; assay type: binding, mice; details: [3H]AZP 0.4 µM
Source text: as §1

P-glycoprotein [3] = assay: [125I]iodomycin photolabelling of Pgp in EHR2/DNR+ cells; assay type: binding, mice
Source text: as §1

EHR2/DNR+ cells [4] = assay: Modulating effect on steady-state DNR accumulation in EHR2/DNR+ cells; assay type: cell-based, mice; details: equimolar concentrations (5 µM)
Source text: (§2) Br. J. Cancer (1993), 67, 226 231 ? Macmillan Press Ltd., 1993 Effect of anthracycline analogs on photolabelling of p-glycoprotein by I'25 liodomycin and [3Hlazidopine: Relation to lipophilicity and inhibition of daunorubicin transport in multidrug resistant cells E. Frichel*, E.J.F. Demant2, M. Sehested3 & N.I. Nissen' 'Department of Medicine and Hematology, L 4042, Rigshospitalet-University Hospital, 9, Blegdamsvej, DK-2100 Copenhagen; 2Department of Biochemistry C, The Panum Institute, University of Copenhagen, DK-2200 Copenhagen; 3Department of Pathology, Sundby Hospital, DK-2300 Copenhagen, Denmark. […] We photoaffinity labelled P-glycoprotein in daunorubicin (DNR) resistant Ehrlich ascites tumour cells (EHR2/DNR + ) with a ['25I]iodinated Bolton-Hunter derivative of daunorubicin ([1251]iodomycin) and with [3H]azidopine. […] Anthracyclines are among the most valuable cytostatic agents in clinical use. […] Anthracycline inter-actions with Pgp were assessed using the specific photolabelling of the protein with [251I]iodomycin, a ['251]iodinated Bolton-Hunter derivative of DNR (Busche et al., 1989a) and with [3H]azidopine ([3H]AZP) which photolabels Pgp in plasma membrane vesicles from EHR2/ DNR + cells (Sehested et al., 1990) as well as in whole cells (Safa et al., 1987; Friche et al., 1990c). […]

Pgp [5] = details: read-out: Kd for binding to Pgp, cited from earlier work
EHR2/DNR+ cells [6] = details: ref Friche et al., cited from earlier work
Pgp [7] = test system: Pgp; parameters: method as in Safa et al. (1987); details: ref Safa et al., 1987; cited from earlier work
EHR2/DNR+ cells [8] = assay: Steady-state drug accumulation in EHR2 and EHR2/DNR+ cells; assay type: cell-based, mice
Source text: as §2, with “use. Their usefulness is, however, limited by the occurrence of tumour cells with the multidrug resistance (MDR) phenotype (Beck, 1987; Bliek & Borst, 1989; Endicott & Ling, 1989; Kaye & Merry, 1985; Moscow & Cowan, 1988). MDR cells have an enhanced amount of a 150- 170 kDa plasma membrane glycoprotein, P-glycoprotein (Pgp) (Kartner et al., 1983 and 1985; Cornwell et al., 1986; Bradley et al., 1988; Beck, 1991a; Roninson, 1991), that may function as a low-specificity transport protein to facilitate the outward transport of cytotoxic agents including the anthracyclines.” for “use.”

[9] = 40 µM drug (100-fold molar excess)
[10] = 10 µM drug (1000-fold molar excess), iodomycin 10 nM, 30 min 37°C
[11] = 5 µM modulator (500-fold molar excess)

Compound	Lipid solubility (O/W), octanol/water partition coefficient [1]	Per cent inhibition of [3H]AZP photolabelling of Pgp (P-glycoprotein [2]; 10 µM drug)	Per cent inhibition of [3H]AZP photolabelling of Pgp (P-glycoprotein [2]; 20 µM drug)	Per cent inhibition of [3H]AZP photolabelling of Pgp (P-glycoprotein [2]; [9])	Per cent inhibition of [125I]iodomycin photolabelling of Pgp (P-glycoprotein [3]; [10])	Per cent inhibition of [125I]iodomycin photolabelling of Pgp (P-glycoprotein [3]; 20 µM drug, iodomycin 10 nM)	Per cent inhibition of [125I]iodomycin photolabelling of Pgp (P-glycoprotein [3]; 40 µM drug, iodomycin 10 nM)	further results
CC(=O)[C@]1(O)Cc2c(O)c3c(c(O)c2[C@@H](O[C@H]2C[C@H](N)[C@H](O)[C@H](C)O2)C1)C(=O)c1ccccc1C3=O [4-demethoxy-daunorubicin]	13.08	1.5%	3.6%	19.8%	35.9%	52.2%	58.3%	–
CCCCC(=O)OCC(=O)[C@]1(O)Cc2c(O)c3c(c(O)c2[C@@H](O[C@H]2C[C@H](NCc4ccccc4)[C@H](O)[C@H](C)O2)C1)C(=O)c1c(OC)cccc1C3=O [AD-198, N-benzyladriamycin-14-valerate]	> 200	74.1%	81.7%	90.9%	85%	95.8%	> 99%	Per cent inhibition of [3H]AZP photolabelling of Pgp (P-glycoprotein [2]; 40 µM drug (100-fold molar excess), listed as Ad-198): about 90%
CC[C@@]1(O)C[C@H](O[C@H]2C[C@H](N(C)C)[C@H](O[C@H]3C[C@H](O)[C@H](O[C@H]4CCC(=O)[C@H](C)O4)[C@H](C)O3)[C@H](C)O2)c2c(cc3c(c2O)C(=O)c2c(O)cccc2C3=O)[C@H]1C(=O)OC [Aclacinomycin A]	–	65.3%	74.7%	85.7%	22.6%	52.0%	75.3%	Effect on accumulation of DNR (EHR2/DNR+ cells [4]): did increase accumulation of DNR the most
CCOC(=O)C1=C(C)NC(C)=C(C(=O)OCCNC(=O)c2ccc(N=[N+]=[N-])cc2)C1c1ccccc1C(F)(F)F (stereo not drawn) [Azidopine]	–	–	–	–	67.9%	–	–	Kd (Pgp [5]; ref Safa et al., 1987): 1000 nM; Per cent inhibition of [125I]iodomycin photolabelling of Pgp (P-glycoprotein [3]; 1 µM modulator): 6.7%; Per cent inhibition of [125I]iodomycin photolabelling of Pgp (P-glycoprotein [3]; 1 µM modulator, listed as AZP): hardly inhibited; Per cent inhibition of [125I]iodomycin photolabelling of Pgp (P-glycoprotein [3]; [11]): 50.0%; Per cent inhibition of [125I]iodomycin photolabelling of Pgp (P-glycoprotein [3]; 5 µM modulator (500-fold molar excess), listed as AZP): 50%
COc1cccc2c1C(=O)c1c(O)c3c(c(O)c1C2=O)C[C@@](O)(C(=O)CO)C[C@@H]3O[C@H]1C[C@H](N)[C@H](I)[C@H](C)O1 [DIDOX, 4'-deoxy-4'-iododoxorubicin]	14.51	0%	0%	19.7%	20.6%	17.5%	22.5%	Effect on accumulation of DNR (EHR2/DNR+ cells [6]; 1990b, Arcamone, 1985): did not increase DNR accumulation
COc1cccc2c1C(=O)c1c(O)c3c(c(O)c1C2=O)C[C@@](O)(C(=O)CO)C[C@@H]3O[C@H]1C[C@H](N)[C@H](O)[C@H](C)O1 [Doxorubicin]	1.22	0%	10.5%	11.0%	0%	0%	16.8%	Inhibition of [3H]AZP labelling of Pgp (Pgp [7]): 19%; Effect on accumulation of DNR (EHR2/DNR+ cells [6]; 1990a): does not increase accumulation of DNR; Per cent inhibition of [3H]AZP photolabelling of Pgp (P-glycoprotein [2]; 40 µM drug (100-fold molar excess), listed as DOX): 10-17%; Per cent inhibition of [125I]iodomycin photolabelling of Pgp (P-glycoprotein [3]; 10 µM drug (1000-fold molar excess), iodomycin 10 nM, 30 min 37°C, listed as DOX): did not cause significant inhibition; Per cent inhibition of [125I]iodomycin photolabelling of Pgp (P-glycoprotein [3]; 40 µM drug, iodomycin 10 nM, listed as DOX): 17% and 10-17%
O=C1c2c(O)ccc(O)c2C(=O)c2c(NCCNCCO)ccc(NCCNCCO)c21 [Mitoxantrone]	5.06	7.5%	15.6%	19.5%	42.9%	56.9%	58.8%	–
COc1cccc2c1C(=O)c1c(O)c3c(c(O)c1C2=O)C[C@@](O)(C(C)=O)C[C@@H]3OC1CC(N(Cc2ccccc2)Cc2ccccc2)C(O)C(C)O1.Cl (stereo partly drawn) [N,N,-dibenzyl-daunorubicin]	> 200	75.2%	87.1%	90.5%	52.4%	97.3%	> 99%	Effect on accumulation of DNR (EHR2/DNR+ cells [4]): did increase accumulation of DNR the most; Per cent inhibition of [3H]AZP photolabelling of Pgp (P-glycoprotein [2]; 40 µM drug (100-fold molar excess), listed as N,N-dibenzyl-DNR): about 90%; Per cent inhibition of [125I]iodomycin photolabelling of Pgp (P-glycoprotein [3]; 20 µM drug, iodomycin 10 nM, listed as N,N-dibenzyl-DNR): 97%
CC[C@]1(O)C[C@H]2CN(CCc3c([nH]c4ccccc34)[C@@](C(=O)OC)(c3cc4c(cc3OC)N(C=O)[C@H]3[C@@](O)(C(=O)OC)[C@H](OC(C)=O)[C@]5(CC)C=CCN6CC[C@]43[C@@H]65)C2)C1 [Vincristine]	1.98	–	–	–	95% and 94.3%	–	–	Per cent inhibition of [125I]iodomycin photolabelling of Pgp (P-glycoprotein [3]; 1 µM modulator): 53.1%; Per cent inhibition of [125I]iodomycin photolabelling of Pgp (P-glycoprotein [3]; 1 µM modulator, listed as VCR): about 50%; Per cent inhibition of [125I]iodomycin photolabelling of Pgp (P-glycoprotein [3]; [11]): 78.6%; Per cent inhibition of [125I]iodomycin photolabelling of Pgp (P-glycoprotein [3]; 10 µM drug (1000-fold molar excess), iodomycin 10 nM, 30 min 37°C, listed as VCR): almost completely blocked
COc1cccc2c1C(=O)c1c(O)c3c(c(O)c1C2=O)CC(O)(C(C)=O)CC3OC1CC(NC(=O)CCc2ccc(O)c(I)c2)C(O)C(C)O1 (stereo not drawn) [[125I]iodomycin]	–	–	–	–	–	–	–	Reduced steady-state accumulation in EHR2/DNR+ relative to EHR2 (EHR2/DNR+ cells [8]): ~5 fold; Steady-state accumulation (EHR2/DNR+ cells [8]; EHR2/DNR+ cells): 42 fmol 10-6 cells; Steady-state accumulation (EHR2/DNR+ cells [8]; EHR2 cells (wild type)): 207 fmol 10-6 cells; Kd (Pgp [5]; ref Busche et al., 1989b): 25 nM
